Experimental findings from patent US20250064844A1 (Emory University, priority 2020, published 2025) are described below.

Data set [1] can be described thus: in vitro. Particulars: monkey, plasma.
A short description of data set [2]: in vitro. Particulars: both, human, plasma.
The conditions of data set [3]: cynomolgus monkey, in vivo, po; for AUC0->24h / CL / Cmax / Tmax / t1/2: 0.4 mmol/kg.
A short description of data set [4]: in vitro. Particulars: male, CD-1, mouse, microsomes, pH 7.4.
Data set [5] can be described thus: in vitro. Particulars: male, CD-1, mouse, plasma.
The nature of data set [6]: in vitro. Particulars: both, human, microsomes, pH 7.4.
Data set [7] is described as follows: in vitro. Particulars: monkey, microsomes, pH 7.4.
A short description of the next data set: in vivo. Particulars: ICR (CD-1), mouse, 15 mg/kg.
The nature of data set [8]: in vitro. Particulars: dog, plasma.
For data set [9] the following is noted: human, in vivo.
Data set [10] in a line: in vitro. Particulars: male, Sprague-Dawley, rat, plasma.

Molecules are shown by their SMILES. Read-outs that look alike come from different tables or passages of the source.

With `CC(C)C(=O)OC[C@H]1O[C@@H](n2ccc(NO)nc2=O)[C@H](OC(=O)C(C)C)[C@@H]1OC(=O)C(C)C` [EIDD-2800], the values for the half-life at 1 μM in “in vitro [1]”, in the data set “in vitro [2]” and in “in vitro [5]” were 2 min, 1 min and 1 min, respectively. Moreover, the “F*” value in data set [3] (female) was ~16%; in [3] (male), ~27%. In addition, the half-life in “in vitro [4]” is < 1 min.
On to `CC(C)[C@H](N)C(=O)OC[C@H]1O[C@@H](n2ccc(NO)nc2=O)[C@H](O)[C@@H]1O` [EIDD-2898], for which the half-life at 1 μM in the data set “in vitro [1]” worked out at 138 min. Further, the half-life at 1 μM in the data set “in vitro [2]” stood at 198 min. Further, in data set [3] (female), the “F*” value is reported as ~15%, the “AUC0->24h” value worked out at 26.9 ± 4.8 nmol·h/mL, the CL is 15.9 ± 3.2 L/h/kg and the Cmax was found to be 15.9 ± 8.1 µM. Moreover, in [3] (female), the Tmax stood at 1.3 ± 0.5 h and the t1/2 was 33 ± 15 min. In [3] (male), the “F*” value is ~18%, the “AUC0->24h” value amounted to 26.1 ± 5.2 nmol·h/mL, the CL worked out at 16.4 ± 3.1 L/h/kg and the Cmax amounted to 9.1 ± 2.7 µM. For the same compound, in [3] (male), the Tmax stood at 2.3 ± 0.96 h and the t1/2 came to 31.8 ± 9.6 min. The same compound gave a half-life in the data set “in vitro [6]” of 14 min. Also, in “in vitro [5]”, the half-life at 1 μM was 144 min. Besides, the half-life in “in vitro [7]” turned out to be 13 min. In “in vivo”, the AUC(0-inf) is 8.23 µM·h, the Cmax stood at 23.1 µM, the Tmax was 4.8 min and the half-life was 20.4 min.
For the compound `CC(C)C(=O)OC[C@H]1O[C@@H](n2ccc(NO)nc2=O)[C@H](O)[C@@H]1O` [EIDD-2801], the half-life at 1 μM in the data set “in vitro [1]” was found to be 24 min; in the data set “in vitro [8]” it was 192 min; in “in vitro [2]” it was 63 min; in the data set “in vitro [5]” it was 1 min; in the data set “in vitro [10]”, 1 min. The “AUC0−>t” value was found to be 85.3 pmol · h/M cells in the data set on CEM cells, 360.3 pmol · h/M cells in the data set with HepG2 cells, 1025 pmol · h/M cells in the data set with Huh-7 cells and 1724 pmol · h/M cells in the data set on Vero cells. In addition, the Cmax in the data set with CEM cells was determined as 5.4 pmol/M Cells; in the data set on HepG2 cells it was 18.9 pmol/M Cells; with Huh-7 cells, 77.5 pmol/M Cells; in the data set with Vero cells it was 121.2 pmol/M Cells. Further, the “F*” value in data set [3] (female) is ~26%; in [3] (male), ~22%. In [9], the hematological parameters result is “no clinically significant changes in hematological parameters”.

A word on the half-life: it is the time needed for the level to fall by half in the phase considered. A higher half-life goes with slow loss. In general, Tmax refers to the time from dosing to the highest level. The AUC(0-inf) is total exposure, with the tail of the curve extrapolated. A low value points to low exposure.
